In general, IC50 refers to the concentration that gives 50% inhibition.

Structures are written as SMILES.

Test [1] deals with T1, SMYD3 (Homo sapiens (Human), UniProt Q9H7B4). Kind of test: SMYD3 biochemical assay (SPA, 3H-SAM methylation of MEKK2 protein substrate). Conditions: Table 2A; read-out: SMYD3 Biochem IC50. The essentials:
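SPA methyltransferase format: tag-cleaved human SMYD3, insect-cell GST-MEKK2 protein substrate, 3H-SAM donor, 30 min RT enzyme–compound preincubation, 100 uM cold SAM quench.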

The target of test [2] is T1, SMYD3. The experiment in a line: SMYD3 cell assay (Trimethyl-MEKK2 In-Cell Western in 293T/17 cells). The class given is cell-based. Conditions: Table 2A; read-out: SMYD3 Cell IC50. The essentials:
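In-Cell Western readout: methanol-fixed cells stained for trimethyl-MEKK2 and flag tag, ratio per well normalized to DMSO and background controls.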

T1 sequence (Q9H7B4 whole entry): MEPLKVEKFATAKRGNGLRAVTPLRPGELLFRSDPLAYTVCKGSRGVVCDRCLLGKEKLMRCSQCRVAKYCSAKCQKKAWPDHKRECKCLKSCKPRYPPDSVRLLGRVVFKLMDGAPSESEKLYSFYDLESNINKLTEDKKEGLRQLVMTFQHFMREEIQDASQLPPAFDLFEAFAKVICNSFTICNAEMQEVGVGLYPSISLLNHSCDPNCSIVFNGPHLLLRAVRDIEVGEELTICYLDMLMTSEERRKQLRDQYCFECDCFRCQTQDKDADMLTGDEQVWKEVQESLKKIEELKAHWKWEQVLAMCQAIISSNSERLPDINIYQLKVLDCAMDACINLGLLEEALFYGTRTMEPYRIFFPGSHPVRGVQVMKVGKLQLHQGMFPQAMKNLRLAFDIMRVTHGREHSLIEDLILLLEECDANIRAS

On to `COCCN1CCC(CS(=O)(=O)N2[C@@H]3CC[C@H]2C[C@@H](NC(=O)c2cc(C4CC4)on2)C3)CC1` [compound 556, 5-cyclopropyl-N-((1R,3r,5S)-8-(((1-(2-methoxyethyl)piperidin-4-yl)methyl)sulfonyl)-8-azabicyclo[3.2.1]octan-3-yl)isoxazole-3-carboxamide], for which the IC50 on SMYD3 [1] was 0.0039 µM; at SMYD3 [2], 0.0557 µM.
As for `CC(C)CN1CCC(CS(=O)(=O)N2CC[C@H](NC(=O)c3cc(C4CC4)on3)C[C@@H]2C)CC1` [compound 557, 5-cyclopropyl-N-((2S,4S)-1-(((1-isobutylpiperidin-4-yl)methyl)sulfonyl)-2-methylpiperidin-4-yl)isoxazole-3-carboxamide], the IC50 at SMYD3 [1] was determined as 0.0042 µM; on SMYD3 [2] it was 0.261 µM.
As for `C[C@H]1C[C@@H](NC(=O)c2cc(C3CC3)on2)CCN1S(=O)(=O)N1CCNCC1` [compound 558, 5-cyclopropyl-N-((2S,4S)-2-methyl-1-(piperazin-1-ylsulfonyl)piperidin-4-yl)isoxazole-3-carboxamide], the values for the 50% inhibitory concentration (IC50) on SMYD3 [1] and at SMYD3 [2] were 0.0043 µM and 0.0719 µM, respectively.
For the compound `CN1C2CCC1CN(S(=O)(=O)N1[C@@H]3CC[C@H]1C[C@@H](NC(=O)c1cc(C4CC4)on1)C3)C2` [compound 560, 5-cyclopropyl-N-((1R,3r,5S)-8-((8-methyl-3,8-diazabicyclo[3.2.1]octan-3-yl)sulfonyl)-8-azabicyclo[3.2.1]octan-3-yl)isoxazole-3-carboxamide], the results for the IC50 on SMYD3 [1] and at SMYD3 [2] were 0.0048 µM and 0.0516 µM, respectively.
Take `CNCCNCCCS(=O)(=O)N1[C@@H]2CC[C@H]1C[C@@H](NC(=O)c1cc(C3CC3)on1)C2` [compound 563, 5-cyclopropyl-N-((1R,3r,5S)-8-((3-((2-(methylamino)ethyl)amino)propyl)sulfonyl)-8-azabicyclo[3.2.1]octan-3-yl)isoxazole-3-carboxamide]: the IC50 amounted to 0.0053 µM at SMYD3 [1] and 0.339 µM at SMYD3 [2].
For `NCCNCCCS(=O)(=O)N1[C@@H]2CC[C@H]1C[C@@H](NC(=O)c1cc(C3CC3)on1)C2` [compound 564, N-((1R,3r,5S)-8-((3-((2-aminoethyl)amino)propyl)sulfonyl)-8-azabicyclo[3.2.1]octan-3-yl)-5-cyclopropylisoxazole-3-carboxamide] the same measures were 0.0053 µM and 0.166 µM.
For `C[C@H]1C[C@@H](NC(=O)c2cc(C3CC3)on2)CCN1S(=O)(=O)N1CC2CCC(C1)N2C` [compound 565, 5-cyclopropyl-N-((2S,4S)-2-methyl-1-((8-methyl-3,8-diazabicyclo[3.2.1]octan-3-yl)sulfonyl)piperidin-4-yl)isoxazole-3-carboxamide] the same measures were 0.006 µM and 0.0494 µM.
For `C[C@H]1C[C@@H](NC(=O)c2cc(C3CC3)on2)CCN1S(=O)(=O)CCCNCc1ccc(C(F)(F)F)cc1` [compound 566, 5-cyclopropyl-N-((2S,4S)-2-methyl-1-((3-((4-(trifluoromethyl)benzyl)amino)propyl)sulfonyl)piperidin-4-yl)isoxazole-3-carboxamide] the same measures were 0.0061 µM and 0.322 µM.
Consider `C[C@H]1CN(S(=O)(=O)N2CCC(N)CC2)CC[C@H]1NC(=O)c1cc(C2CC2)on1` [compound 567, N-((3S,4R)-1-((4-aminopiperidin-1-yl)sulfonyl)-3-methylpiperidin-4-yl)-5-cyclopropylisoxazole-3-carboxamide], for which the IC50 was found to be 0.0061 µM on SMYD3 [1] and 0.113 µM at SMYD3 [2].
On to `C[C@@H]1C[C@H](NC(=O)c2cc(C3CC3)on2)CCN1S(=O)(=O)CC1CCN(C)CC1` [compound 568, 5-cyclopropyl-N-((2R,4R)-2-methyl-1-(((1-methylpiperidin-4-yl)methyl)sulfonyl)piperidin-4-yl)isoxazole-3-carboxamide], for which the IC50 came out at 0.0063 µM on SMYD3 [1] and 0.156 µM at SMYD3 [2].
Regarding `O=C(N[C@H]1C[C@H]2CC[C@@H](C1)N2S(=O)(=O)C[C@@H]1CCCNC1)c1cc(C2CC2)on1` [compound 569, 5-cyclopropyl-N-((1R,3R,5S)-8-((((R)-piperidin-3-yl)methyl)sulfonyl)-8-azabicyclo[3.2.1]octan-3-yl)isoxazole-3-carboxamide], the IC50 on SMYD3 [1] was determined as 0.0066 µM; on SMYD3 [2], 0.0394 µM.
With `C[C@H]1C[C@@H](NC(=O)c2cc(C3CC3)on2)CCN1S(=O)(=O)N1CC2CC1CN2` (stereo partly drawn) [compound 570, N-((2S,4S)-1-((2,5-diazabicyclo[2.2.1]heptan-2-yl)sulfonyl)-2-methylpiperidin-4-yl)-5-cyclopropylisoxazole-3-carboxamide], the IC50 at SMYD3 [1] was 0.0067 µM; on SMYD3 [2], 0.0839 µM.
The like results for `O=C(N[C@H]1C[C@H]2CC[C@@H](C1)N2S(=O)(=O)N1CC2CC(C1)N2)c1cc(C2CC2)on1` [compound 571, N-((1R,3r,5S)-8-((3,6-diazabicyclo[3.1.1]heptan-3-yl)sulfonyl)-8-azabicyclo[3.2.1]octan-3-yl)-5-cyclopropylisoxazole-3-carboxamide] were, in that order, 0.0075 µM and 0.0992 µM.
The like results for `C[C@H]1CN(S(=O)(=O)N2CC[C@H](NC(=O)c3cc(C4CC4)on3)C[C@@H]2C)CCN1` [compound 572, 5-cyclopropyl-N-((2S,4S)-2-methyl-1-(((S)-3-methylpiperazin-1-yl)sulfonyl)piperidin-4-yl)isoxazole-3-carboxamide] were, in that order, 0.0078 µM and 0.0536 µM.
`C[C@@H]1C[C@H](NC(=O)c2cc(C3CC3)on2)CCN1S(=O)(=O)CC1CCN(Cc2ccccc2)CC1` [compound 573, N-((2R,4R)-1-(((1-benzylpiperidin-4-yl)methyl)sulfonyl)-2-methylpiperidin-4-yl)-5-cyclopropylisoxazole-3-carboxamide]: the IC50 at SMYD3 [1] was 0.008 µM; at SMYD3 [2], 0.293 µM.
The like results for `C[C@H]1C[C@@H](NC(=O)c2cc(C3CC3)on2)CCN1S(=O)(=O)C1CCN(C)CC1` [compound 574, 5-cyclopropyl-N-((2S,4S)-2-methyl-1-((1-methylpiperidin-4-yl)sulfonyl)piperidin-4-yl)isoxazole-3-carboxamide] were, in that order, 0.008 µM and 0.105 µM.
For `O=C(N[C@H]1C[C@H]2CC[C@@H](C1)N2S(=O)(=O)C[C@H]1CCCNC1)c1cc(C2CC2)on1` [compound 575, 5-cyclopropyl-N-((1R,3S,5S)-8-((((S)-piperidin-3-yl)methyl)sulfonyl)-8-azabicyclo[3.2.1]octan-3-yl)isoxazole-3-carboxamide], the IC50 at SMYD3 [1] was 0.008 µM; on SMYD3 [2], 0.0674 µM.
The like results for `C[C@H]1C[C@@H](NC(=O)c2cc(C3CC3)on2)CCN1S(=O)(=O)CCCCN(C)C` [compound 576, 5-cyclopropyl-N-((2S,4S)-1-((4-(dimethylamino)butyl)sulfonyl)-2-methylpiperidin-4-yl)isoxazole-3-carboxamide] were, in that order, 0.0081 µM and 0.106 µM.
As for `C[C@H]1C[C@@H](NC(=O)c2cc(C3CC3)on2)CCN1S(=O)(=O)N1CC2CCC1CN2` (stereo partly drawn) [compound 577, N-((2S,4S)-1-((2,5-diazabicyclo[2.2.2]octan-2-yl)sulfonyl)-2-methylpiperidin-4-yl)-5-cyclopropylisoxazole-3-carboxamide], the IC50 on SMYD3 [1] was 0.0092 µM; at SMYD3 [2], 0.134 µM.

The record behind these values is patent publication US10577363B2, “Substituted piperidine compounds” (EPIZYME, INC., priority 2014, dated 2020).
